Source: patent US20080227768A1, “Crystal of 1-Methylcarbapenem Compound” (priority 2005, published 2008)
Like-named read-outs stand apart in the source and are kept apart here.

What was measured:
[1] = Water Solubility Test (time to completely dissolve); assay type: physicochemical; settings: for Dissolving time: 300 mg of crystals sized through 150 μm mesh, 10 ml of water, 25° C., complete dissolution
Description: The crystalline form of the present invention obtained according to Example 2 and a crystalline form described in Japanese Patent Application Publication (Kokai) No. 2001-72681 ((1R,5S,6S)-6-[(1R)-1-hydroxyethyl]-1-methyl-2-[(2S,4S)-2-[(3S)-3-(2-guanidinoacetylamino)pyrrolidin-1-ylcarbonyl]-1-methylpyrrolidin-4-ylthio]-1-carbepen-2-em-3-carboxylic acid, referred to as Crystalline form 2) were sized by passing through a 150 μm mesh filter followed by measurement of the amount of time required for 300 mg of the crystals to completely dissolve in 10 ml of water at 25° C.

[2] = test system: Gram-negative bacteria and Gram-positive bacteria; settings: cited from earlier work
[3] = Storage Stability Test-2 (sealed brown glass bottle, 40° C., purity by HPLC); assay type: physicochemical; settings: HPLC peak area ratio
Experimental: (§1) The crystalline form of the present invention obtained according to Example 2 and Crystalline form 1 were sealed in a brown glass bottle at a constant temperature of 40° C. followed by measurement of purity at the start of the test and one month later using high performance liquid chromatography (column: Develosil RPAQUEOUS 4.6×150 mm, column temperature: 60° C., developer flow rate: 1.0 ml/min, developer: 0.02 M aqueous potassium dihydrogen phosphate solution/acetonitrile=95/5 to 50/50). The resulting purities were represented as the ratios of the areas of the chromatographic peaks.

[4] = Storage Stability Test-1 (sealed brown glass bottle, 25° C., purity by HPLC); assay type: physicochemical; settings: HPLC peak area ratio
Experimental: as §1, with “and a crystalline form described in Japanese Patent Application Publication (Kokai) No. 2001-72681 ((1R,5S,6S)-6-[(1R)-1-hydroxyethyl]-1-methyl-2-[(2S,4S)-2-[(3S)-3-(2-guanidinoacetylamino)pyrrolidin-1-ylcarbonyl]-1-methylpyrrolidin-4-ylthio]-1-carbepen-2-em-3-carboxylic acid·monoethanolate·trihydrate, referred to as” for “and”, “form 1)” for “form 1”, “of 25°” for “of 40°”, “the test,” for “the test and”, “month later and two months” for “month”

SMILES | Dissolving time [1] | antibacterial activity ([2]; from Patent Documents 1 and 2, listed as formula (I)) | antibacterial activity ([2]; from Patent Documents 1 and 2) | Purity 1 month later (%) [3] | Purity at start of test (%) [3] | Purity (%) 1 month later [4] | Purity (%) 2 months later [4] | Purity (%) Start of test [4] | solubility in water (in words) ([1]; compared with the known crystalline form)
C[C@@H](O)[C@H]1C(=O)N2C(C(=O)O)=C(S[C@H]3C[C@@H](C(=O)N4CC[C@H](NC(=O)CNC(=N)N)C4)N(C)C3)[C@H](C)[C@H]12 [Crystalline form 2, (1R,5S,6S)-6-[(1R)-1-hydroxyethyl]-1-methyl-2-[(2S,4S)-2-[(3S)-3-(2-guanidinoacetylamino)pyrrolidin-1-ylcarbonyl]-1-methylpyrrolidin-4-ylthio]-1-carbepen-2-em-3-carboxylic acid, reference compound] | 8.0 min |  |  |  |  |  |  |  | 
C[C@@H](O)[C@H]1C(=O)N2C(C(=O)O)=C(S[C@H]3C[C@@H](C(=O)N4CC[C@H](NC(=O)CNC(=N)N)C4)N(C)C3)[C@H](C)[C@H]12 [compound (I), (1R,5S,6S)-6-[(1R)-1-hydroxyethyl]-1-methyl-2-[(2S,4S)-2-[(3S)-3-(2-guanidinoacetylamino)pyrrolidin-1-ylcarbonyl]-1-methylpyrrolidin-4-ylthio]-1-carbapen-2-em-3-carboxylic acid] |  | potent antibacterial activity | excellent antibacterial activity |  |  |  |  |  | 
CCO.C[C@@H](O)[C@H]1C(=O)N2C(C(=O)O)=C(S[C@H]3C[C@@H](C(=O)N4CC[C@H](NC(=O)CNC(=N)N)C4)N(C)C3)[C@H](C)[C@H]12.O.O.O [Crystalline form 1, (1R,5S,6S)-6-[(1R)-1-hydroxyethyl]-1-methyl-2-[(2S,4S)-2-[(3S)-3-(2-guanidinoacetylamino)pyrrolidin-1-ylcarbonyl]-1-methylpyrrolidin-4-ylthio]-1-carbepen-2-em-3-carboxylic acid·monoethanolate·trihydrate, reference compound] |  |  |  | 98.26% | 98.45% | 98.35% | 98.06% | 98.45% | 
C[C@@H](O)[C@H]1C(=O)N2C(C(=O)O)=C(S[C@H]3C[C@@H](C(=O)N4CC[C@H](NC(=O)CNC(=N)N)C4)N(C)C3)[C@H](C)[C@H]12 (stereo in doubt) [Crystalline form of present invention, (1R,5S,6S)-6-[(1R)-1-Hydroxyethyl]-1-methyl-2-[(2S,4S)-2-[(3S)-3-(2-guanidinoacetylamino)pyrrolidin-1-ylcarbonyl]-1-methylpyrrolidin-4-ylthio]-1-carbapen-2-em-3-carboxylic acid acetonate] | 2.5 min |  |  | 98.35% | 98.35% | 98.43% | 98.40% | 98.35% | superior to that of the known crystalline form
